In patent US7951956B2, “Benzoimidazole compound capable of inhibiting prostaglandin D synthetase” (Taiho Pharmaceuticals Co., Ltd., priority 2005, dated 2011):

Biological target: human hematopoietic synthase (Homo sapiens, UniProt O60760)
Assay: Hematopoietic synthase inhibitory activity (Experiment 1)
Assay type: biochemical
Details: [14C] prostaglandin H2 10 μM, preincubated at 25° C. for 5 minutes, 1 minute reaction; read-out: Concentration of Pharmaceutical Compound Required to Inhibit 50% of Hematopoietic Synthase
Protocol: Experiment 1 was carried out according to the method of Urade, Y. et al. (J. Biol. Chem. 262, 3820-3825, (1987)). More specifically, the reaction mixture (49 μL); 100 mM Tris-HCl (pH 8.0), 1 mM reduced glutathione, 0.1 mg/mL γ-globulin, and human hematopoietic synthase (quantum sufficient), and a test compound (final concentration: 0.01-100 μM) were preincubated at 25° C. for 5 minutes. In place of the test compound, a DMSO solution (final concentration: 1%) was used in the solvent control group (Control Group). Subsequently, 1 μL of [^14C] prostaglandin H2 (final concentration: 10 μM) was added to start the reaction. One minute after the start of the reaction, 250 μL of a reaction stopper solution (diethylether/methanol/1M citric acid (30/4/1) cooled to −20° C. was added to stop the reaction.
Thereafter, 50 μL of the upper layer portion (organic solvent phase) was applied to a TLC plate and developed at −20° C. for 45 minutes (developer: diethylether/methanol/acetic acid (capacity ratio=90/2/1)). After drying the plate, the plate was exposed to an imaging plate for 1 to 24 hours, and the radioactivity corresponding to prostaglandin D2 was analyzed using an image analyzer (product of FUJIFILM Corporation). The area (%) occupied by the prostaglandin D2 band per lane was calculated, and the concentration of the test compound required to inhibit 50% of the hematopoietic synthase (IC50 value) was calculated by comparison with the Control group in each experiment.

human hematopoietic synthase, sequence (O60760 whole entry): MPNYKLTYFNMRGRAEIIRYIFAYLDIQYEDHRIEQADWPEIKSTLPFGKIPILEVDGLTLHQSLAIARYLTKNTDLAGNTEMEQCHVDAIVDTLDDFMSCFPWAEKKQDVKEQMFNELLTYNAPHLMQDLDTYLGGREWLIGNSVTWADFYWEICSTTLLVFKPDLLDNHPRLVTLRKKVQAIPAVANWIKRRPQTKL

SMILES	IC50
CCOC(=O)C1CCN(C(=O)c2[nH]c(C)c(-c3nc4cc(C(=O)c5ccccc5)ccc4[nH]3)c2C)CC1 [Compound 44, ((4-(5-Benzoylbenzimidazol-2-yl)-3,5-dimethylpyrrol-2-yl)-carbonyl)-4-ethoxycarbonylpiperidine]	1670 nM
Cc1[nH]c(C(=O)N2CCC(C(=O)N(C)CCN(C)C)CC2)c(C)c1-c1nc2cc(C(=O)c3ccccc3)ccc2[nH]1 [Compound 47, N-Methyl-N-(2-dimethylaminoethyl)-1-((4-(5-benzoylbenzimidazol-2-yl)-3,5-dimethylpyrrol-2-yl)-carbonyl)piperidine-4-carboxamide]	269 nM
Cc1[nH]c(C(=O)N2CCC(C(=O)NCCCN(C)C)CC2)c(C)c1-c1nc2cc(C(=O)c3ccccc3)ccc2[nH]1 [Compound 48, N-(3-Dimethylaminopropyl)-1-((4-(5-benzoylbenzimidazol-2-yl)-3,5-dimethylpyrrol-2-yl)-carbonyl)piperidine-4-carboxamide]	124 nM
COCCCNC(=O)C1CCN(C(=O)c2[nH]c(C)c(-c3nc4cc(C(=O)c5ccccc5)ccc4[nH]3)c2C)CC1 [Compound 49, N-(3-Methoxypropyl)-1-((4-(5-benzoylbenzimidazol-2-yl)-3,5-dimethylpyrrol-2-yl)-carbonyl)piperidine-4-carboxamide]	649 nM
Cc1[nH]c(C(=O)N2CCC(C(=O)NCC3CCCCC3)CC2)c(C)c1-c1nc2cc(C(=O)c3ccccc3)ccc2[nH]1 [Compound 50, N-Cyclohexylmethyl-1-((4-(5-benzoylbenzimidazol-2-yl)-3,5-dimethylpyrrol-2-yl)-carbonyl)piperidine-4-carboxamide]	843 nM
CN(C)Cc1ccc(-c2nc3cc(C(=O)c4ccccc4)ccc3[nH]2)o1 [Compound 56, 2-(5-Dimethylaminomethyl-furan-2-yl)-5-benzoylbenzimidazole]	4780 nM
O=C(c1ccccc1)c1ccc2[nH]c(-c3ccc(Br)o3)nc2c1 [Compound 58, 2-(5-Bromo-furan-2-yl)-5-benzoylbenzimidazole]	2370 nM
O=C(c1ccccc1)c1ccc2[nH]c(-c3ccc(C(=O)N4CCCC4)o3)nc2c1 [Compound 59]	3560 nM
NC(=O)c1ccc(-c2nc3cc(C(=O)c4ccccc4)ccc3[nH]2)o1 [Compound 60, 5-(5-Benzoylbenzimidazol-2-yl)-furan-2-carboxamide]	4360 nM
O=C(c1ccccc1)c1ccc2[nH]c(-c3ccc(C(=O)NCc4ccc5c(c4)OCO5)o3)nc2c1 [Compound 62, N-(3,4-Methylenedioxyphenylmethyl)-5-(5-benzoylbenzimidazol-2-yl)-furan-2-carboxamide]	2430 nM
O=C(c1ccccc1)c1ccc2[nH]c(-c3ccc(C(=O)N4CCSC4)o3)nc2c1 [Compound 63]	1250 nM
Cc1[nH]c(C(=O)N(C)C)c(C)c1-c1nc2cc(C(=O)c3ccccc3)ccc2[nH]1 [Compound 64, (N,N-Dimethyl)-4-(5-benzoylbenzimidazol-2-yl)-3,5-dimethylpyrrole-2-carboxamide]	377 nM
Cc1[nH]c(C(=O)N(C)O)c(C)c1-c1nc2cc(C(=O)c3ccccc3)ccc2[nH]1 [Compound 65, (N-Hydroxy-N-methyl)-4-(5-benzoylbenzimidazol-2-yl)-3,5-dimethylpyrrole-2-carboxamide]	124 nM
CNC(=O)c1[nH]c(C)c(-c2nc3cc(C(=O)c4ccccc4)ccc3[nH]2)c1C [Compound 66, (N-Methyl)-4-(5-benzoylbenzimidazol-2-yl)-3,5-dimethylpyrrole-2-carboxamide]	77 nM
Cc1[nH]c(C(=O)N2CCOCC2)c(C)c1-c1nc2cc(Oc3ccccc3)ccc2[nH]1 [Compound 71, ((4-(5-Phenoxybenzimidazole-2-yl)-3,5-dimethylpyrrol-2-yl)-2-carbonyl)morpholine]	870 nM
Cc1[nH]c(C(=O)NCCc2ccccn2)c(C)c1-c1nc2cc(Oc3ccccc3)ccc2[nH]1 [Compound 72, N-(2-(2-Pyridyl)ethyl)-4-(5-phenoxybenzimidazole-2-yl)-3,5-dimethylpyrrole-2-carboxamide]	209 nM
